Measurements: ChEMBL document CHEMBL5506004, “Optimizing drug-like properties of selective butyrylcholinesterase inhibitors for cognitive improvement: Enhancing aqueous solubility by disrupting molecular plane” (Eur J Med Chem, 2024)
Active and inactive are the calls of the source. The rule behind the calls is not given here.

Assays:
[1] = Half life in Sprague-Dawley rat at 10 mg/kg, iv measured for 1 to 1440 mins by LC-MS/MS analysis; type: ADME, organism-based; conditions: in vivo, time 1-1440 min
[2] = Oral bioavailability in Sprague-Dawley rat at 10 mg/kg measured for 1 to 1440 mins by LC-MS/MS analysis; type: ADME, organism-based; conditions: in vivo, time 1-1440 min
Mus musculus [3] = assay: Downregulation of Amyloid beta (1 to 42) level in brain of Amyloid beta (1 to 42)-treated ICR mouse at 10 mg/kg, po administered daily for 12 days; type: functional, organism-based; conditions: time 12.0 day
Cholinesterase [4] = target: Cholinesterase (Homo sapiens, UniProt P06276); assay: Inhibition of human BChE using BTC iodide as substrate preincubated for 5 mins followed by substrate addition measured after 2 mins by Ellman's method
Sequence of Cholinesterase (Homo sapiens, UniProt P06276) (P06276 whole entry): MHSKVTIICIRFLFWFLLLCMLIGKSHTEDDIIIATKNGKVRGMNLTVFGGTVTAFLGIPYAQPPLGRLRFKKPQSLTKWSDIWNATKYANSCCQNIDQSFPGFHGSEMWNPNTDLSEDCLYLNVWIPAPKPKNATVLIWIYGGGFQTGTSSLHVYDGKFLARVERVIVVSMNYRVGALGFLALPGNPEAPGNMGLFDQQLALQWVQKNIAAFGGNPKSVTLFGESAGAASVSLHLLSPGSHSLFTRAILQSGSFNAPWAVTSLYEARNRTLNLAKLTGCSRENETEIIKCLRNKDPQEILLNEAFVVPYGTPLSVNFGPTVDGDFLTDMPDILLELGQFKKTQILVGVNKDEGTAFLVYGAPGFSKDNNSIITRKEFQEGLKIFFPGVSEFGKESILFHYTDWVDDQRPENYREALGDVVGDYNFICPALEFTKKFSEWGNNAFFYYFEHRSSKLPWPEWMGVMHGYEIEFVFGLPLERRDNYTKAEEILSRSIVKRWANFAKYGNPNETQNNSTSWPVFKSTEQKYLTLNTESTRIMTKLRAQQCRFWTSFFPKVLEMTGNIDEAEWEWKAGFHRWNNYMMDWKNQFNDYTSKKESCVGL

Cholinesterase [5] = target: Cholinesterase (Equus caballus, UniProt P81908); assay: Inhibition of horse serum BChE using BTC iodide as substrate preincubated for 5 mins followed by substrate addition measured after 2 mins by Ellman's method
Sequence of Cholinesterase (Equus caballus, UniProt P81908) (P81908 whole entry): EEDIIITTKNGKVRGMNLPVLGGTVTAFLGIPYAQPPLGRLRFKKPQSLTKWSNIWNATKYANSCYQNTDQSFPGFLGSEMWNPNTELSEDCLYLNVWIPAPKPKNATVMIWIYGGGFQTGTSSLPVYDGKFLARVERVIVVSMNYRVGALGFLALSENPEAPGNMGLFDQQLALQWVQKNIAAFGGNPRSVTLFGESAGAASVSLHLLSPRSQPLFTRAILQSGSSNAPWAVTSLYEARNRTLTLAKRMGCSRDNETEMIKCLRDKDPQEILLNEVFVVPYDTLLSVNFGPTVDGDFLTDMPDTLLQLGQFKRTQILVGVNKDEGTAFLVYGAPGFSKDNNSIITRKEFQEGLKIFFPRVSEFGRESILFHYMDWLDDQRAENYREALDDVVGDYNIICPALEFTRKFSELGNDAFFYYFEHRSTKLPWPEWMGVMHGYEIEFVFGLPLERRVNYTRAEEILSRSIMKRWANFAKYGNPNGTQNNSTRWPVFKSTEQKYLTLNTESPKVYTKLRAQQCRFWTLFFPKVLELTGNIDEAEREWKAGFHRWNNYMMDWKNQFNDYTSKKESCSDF

[6] = Cmax in Sprague-Dawley rat at 10 mg/kg, iv measured for 1 to 1440 mins by LC-MS/MS analysis; type: ADME, organism-based; conditions: in vivo, time 1-1440 min
[7] = MRT (infinity) in Sprague-Dawley rat at 10 mg/kg, po measured for 1 to 1440 mins by LC-MS/MS analysis; type: ADME, organism-based; conditions: in vivo, time 1-1440 min
Mus musculus [8] = assay: Cognitive enhancing effect in Amyloid beta (1 to 42)-treated ICR mouse assessed as spontaneous decision behaviour at 10 mg/kg, po administered daily measured after 13 days by Y-maze test; type: functional, organism-based; conditions: time 13.0 day
Cytochrome P450 1A2 = target: T1, Cytochrome P450 1A2 (Homo sapiens, UniProt P05177); assay: Inhibition of CYP1A2 in human liver microsomes at 10 uM in presence of NADPH-regenerating system by LC-MS/MS analysis; type: ADME, Microsome
T1 sequence (P05177 whole entry): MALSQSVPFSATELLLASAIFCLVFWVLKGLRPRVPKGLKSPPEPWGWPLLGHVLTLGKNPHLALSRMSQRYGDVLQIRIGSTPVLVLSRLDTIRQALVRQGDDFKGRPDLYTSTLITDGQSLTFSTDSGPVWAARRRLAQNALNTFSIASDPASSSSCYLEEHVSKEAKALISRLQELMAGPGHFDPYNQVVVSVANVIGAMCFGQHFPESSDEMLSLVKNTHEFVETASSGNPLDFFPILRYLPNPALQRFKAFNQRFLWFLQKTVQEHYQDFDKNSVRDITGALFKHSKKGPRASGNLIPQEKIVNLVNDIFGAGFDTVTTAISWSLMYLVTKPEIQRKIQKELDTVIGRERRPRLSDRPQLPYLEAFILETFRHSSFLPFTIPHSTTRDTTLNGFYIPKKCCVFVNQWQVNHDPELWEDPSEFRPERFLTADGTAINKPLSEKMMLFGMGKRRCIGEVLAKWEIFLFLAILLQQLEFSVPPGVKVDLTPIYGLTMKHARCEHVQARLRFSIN

CYP2C19 = CYP2C19 (Homo sapiens, UniProt P33261); assay: Inhibition of CYP2C19 in human liver microsomes at 10 uM in presence of NADPH-regenerating system by LC-MS/MS analysis relative to control; type: ADME, Microsome
Sequence of CYP2C19 (P33261 whole entry): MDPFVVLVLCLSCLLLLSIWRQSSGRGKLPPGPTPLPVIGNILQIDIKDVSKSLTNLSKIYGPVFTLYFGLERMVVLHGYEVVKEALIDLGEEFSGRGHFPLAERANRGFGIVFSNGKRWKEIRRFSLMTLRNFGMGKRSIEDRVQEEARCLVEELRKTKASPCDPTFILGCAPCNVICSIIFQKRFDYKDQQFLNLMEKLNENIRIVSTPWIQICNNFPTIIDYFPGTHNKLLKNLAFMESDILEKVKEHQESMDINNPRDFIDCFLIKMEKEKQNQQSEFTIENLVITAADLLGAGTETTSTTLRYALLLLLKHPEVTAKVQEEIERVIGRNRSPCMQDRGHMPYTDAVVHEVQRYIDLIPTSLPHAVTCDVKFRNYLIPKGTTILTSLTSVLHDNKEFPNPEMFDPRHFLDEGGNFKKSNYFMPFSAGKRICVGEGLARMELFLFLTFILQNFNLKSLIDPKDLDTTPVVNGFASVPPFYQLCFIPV

SH-SY5Y = assay: Cytotoxicity against human SH-SY5Y cells assessed as survival rate incubated for 24 hrs by MTT assay; type: functional, cell-based

In the case of `Nc1nonc1-c1nc2ccccc2n1CC(=O)Nc1ccc(CCN2CCOCC2)cc1`, the half-life [1] is reported as 3.29 h, the bioavailability [2] is reported as 48.2% and the Activity (Mus musculus [3]) is reported as “Active”. The IC50 (Cholinesterase [4]) was 0.0481 µM, the IC50 (Cholinesterase [5]) was 0.0114 µM and the Cmax [6] was 4610 ng/mL. For the same compound, the MRT inf [7] was 9.67 h, the Activity (Mus musculus [8]) was “Active” and the “inhibition (INH)” value (Cytochrome P450 1A2) was “Not Active”. For the same compound, the inhibition at 10 µM (CYP2C19) was 9.19% and the IC50 (SH-SY5Y) was 89.8 µM.
